Laboratory results taken from US6350762B1, “Dihydropyridine derivative” (Ajinomoto Co., Inc., priority 1997, dated 2002).

Experiments:
[1] = target: T1, N-type calcium channel (Rattus norvegicus, UniProt Q02294); experiment: Inhibition activity of N-type calcium channel (patch clamp method), rat maxillary sympathetic ganglion cells; format: cell-based, Wistar rats; conditions: 0.1 uM compound, whole cell voltage clamp, barium current
T1 construct: from tissue; host or cells: acutely dissociated sympathetic ganglion cells of Wistar rats (2 to 4 weeks old)
Protocol: Inhibition Activity of N-type Calcium Channel (Patch Clamp Method)
1) Preparation of Cells of Maxillary Sympathetic Ganglions of Rats
The cervix of each of Wistar rats (2 to 4 weeks old) was opened to expose the maxillary ganglions under anesthesia with pentobarbital. A pair of the ganglions were removed and immediately washed with Ca^2+-free Tyrode solution cooled with ice. Each ganglion was cut into 3 or 4 pieces and kept in the Ca^2+-free Tyrode solution for 15 minutes. Then, these pieces were treated with papain [Washington Biochemicals (lot#35J557); 20 U/ml] for 20 minutes and then with a mixture of 2-type collagenase [Washington Biochemicals (CLS2); 5900 U/ml]and dispase [Calbiochem (lot#1312973); 16 mg/ml] for one hour. After enzymatic treatment, the ganglion cells were mechanically isolated by pipetting. The isolated ganglion cells were used for the experiments within 6 hours.
2) Determination of Calcium Electric Current
The calcium electric current was determined by the whole cell voltage clamp method under the fixed membrane potential. The pipette electrode was pulled from glass tube (inner diameter: 1.5 mm; Narishige) in two stage of a vertical pipette puller (PB-7; Narishige). The ionic current was amplified with a patch amplifier (CEZ-2300; Nihon Kohden Corporation). The noises were cut at 10 kHz (E-3201B, NF Electronic Instrument) and then the ionic current was monitored on a storage oscilloscope (DS-9121, Iwatsu) and, at the same time, recorded with a DAT data recorder (RD-120TE, TEAC). Then it was passed through a 1 kHz filter and recorded in a computer (Compaq DeskPro) with pCLAMP software (Axon Instrument) of 3 kHz. All the experiments were performed at room temperature (25±2° C.). In the measurement of the current through the calcium channel, 10 mM barium (composition of the solution: shown below) was used in place of calcium as the charge carrier. The transmission of barium through the calcium channel was higher than that of calcium in the sympathetic ganglion cells, and the calcium-dependent channel inactivation was slight when barium was used.
The test compounds were rapidly administered by Y-tube method by Murase et al. [Brain Res. 525, 84 (1990)]. Each compound was dissolved in DMSO preparing 10 mM mother solution. At the highest drug concentration used, the vehicle (0.1%) had no significant effect on the calcium electric current.
Composition of Normal Tyrode's solution: NaCl; 143, KCl; 4, MgCl2; 0.5; CaCl2; 1.8, glucose; 5.5, NaH2PO4; 0.33, HEPES; 5 (Mm). The pH was adjusted to 7.4 with tris-OH.
Composition of Ca-free Tyrode's solution: the same as that of the Normal Tyrode's solution except that it was free of CaCl2.
External solution for the determination of calcium electric current (mM): TEACl; 144, CsCl;. […]

[2] = target: T2, L-type calcium channel (Rattus norvegicus, UniProt P22002); experiment: Activity of inhibiting L-type calcium channel: relaxation of KCl contraction of isolated rat thoracic aorta; design: species or system Wistar rats; conditions: for IC50: KCl contraction of isolated rat thoracic aorta, read-out: L-type inhibition IC50
T2 construct: The slips of thoracic aorta extracted from Wistar rats were used; from tissue; host or cells: isolated thoracic aorta rings of Wistar rats, endothelium removed
Protocol: Activity of Inhibiting the Action of L-type Calcium Channel
The activity of the dihydropyridine derivatives of the present invention to inhibit the action of L-type calcium channel was determined by the following method wherein the relaxation reaction on the KCl contraction of isolated thoracic aorta samples of rats was utilized.
1) Preparation of Isolated Thoracic Aorta Samples of Rats
The slips of thoracic aorta extracted from Wistar rats were used. Blood vessels were cut to form rings having a width of about 3 mm. The endothelial cells of the blood vessels were mechanically removed. The samples were suspended in a strain gauge in Tyrode solution (comprising 158.3 mM of NaCl, 4.0 mM of KCl, […] of MgCl2, 0.42 mM of NaH2PO4, 10 mM of NaHCO3, 2 mM of CaCl2 and 5 mM of glucose) in which a gaseous mixture of O2 (95%) and CO2 (5%) was introduced, to apply a stationary tension of 2 g. The tension of the blood vessel was recorded with a multipen recorder (Rikadenki Kogyo Co., Ltd.) by using a transducer after the amplification with a tension amplifier (EF-601G; Nihon Kohden Corporation). The experiments were conducted at 37° C.
2) Determination of Relaxation Reaction Against KCl contraction
After the tension was stabilized, the nutrient solution in the sample tank was replaced with High K^+ Tyrode solution (comprising 112.3 mM of NaCl, 50 mM of KCl, 1.05 mM of MgCl2, 0.42 mM of NaH2PO4, 10 mM of NaHCO3, 2 mM of CaCl2 and 5 mM of glucose) to cause the contraction reaction. 30 minutes after, the solution in the sample tank was replaced with normal Tyrode solution. Then, the solution in the sample tank was again replaced with High K^+ Tyrode solution and the contraction reaction was observed. After the maximum contraction reaction occurred, a test compound was cumulatively added to realize concentrations of 10^−9, 10^−8, 10^−7 and 10^−6 M at intervals of 90 minutes. The inhibition rate of the test compound on the maximum contraction reaction was employed as the index of the activity of inhibiting the action of L-type calcium channel.

[3] = target: T3, N-type calcium channel (Homo sapiens, UniProt Q00975); experiment: Activity of inhibiting N-type calcium channel (fluorescent dye method), IMR-32 cells; format: cell-based; conditions: fluorescent dye (fura-2) method, 60 mM KCl stimulation, 1 μM Nifedipine present; for IC50: read-out: N-type inhibition pIC50 (converted)
T3 construct: Human neuroblastoma cell IMR-32 was obtained from ATCC (American Type Culture Collection); host or cells: IMR-32 human neuroblastoma cells, differentiated with dibutyl cAMP and bromodeoxyuridine
Protocol: Activity of Inhibiting the Action of N-type Calcium Channel (Fluorescent Dye Method):
Human neuroblastoma cell IMR-32 was obtained from ATCC (American Type Culture Collection). The culture medium was prepared by adding 2 mM of L-glutamine (GIBCO), 1 mM of sodium pyruvate of pH 6.5 (GIBCO), a liquid antibiotic/antimicotic mixture (GIBCO) and 10% fetal calf serum (Cell Culture Technologies) to an Eagle minimum essential medium (GIBCO) free of Phenol Red and containing earle's salts supplyment. 3 ml of 1×10^5/ml IMR-32 cells was spread on a glass dish (Iwaki Glass Co., Ltd.) having a bottom diameter of 35 mm, which had been treated with poly-D-lysine (SIGMA) and also with collagen (COLLAGEN VITROGEN 100; a product of Collagen Co.). After the culture for 2 days, 1 mM (final concentration) of dibutyl cAMP and 2.5 μM of bromodeoxyuridine (SIGMA) were added to the culture mixture. After the culture for additional 10 to 14 days, the cells were used for the activity determination. The IMR-32 cell medium prepared as described above was replaced with Eagle minimum essential medium (GIBCO) containing 1 ml of 10 μM fura-2/AM (Dojin Kagaku Co.) and earle's salts supplyment but free of Phenol Red, and the incubation was conducted at 25° C. for one hour.
Then the medium was replaced with fura-2/AM-free Eagle minimum essential medium (GIBCO) free of Phenol Red and containing earle's salts supplyment. After conducting the incubation at 37° C. for one hour, the medium was replaced with a recording medium (comprising 20 mM of HEPES-KOH, 115 mM of NaCl, 5.4 mM of KCl, 0.8 mM of MgCl2, 1.8 mM of CaCl2 and 13.8 mM of D-glucose). The N-calcium channel inhibition activity was determined and analyzed with a fluorescent microscope (Nikon corporation) and an image analysis apparatus ARGUS 50 (Hamamatsu Photonics). Namely, a recording medium (comprising 20 mM of HEPES-KOH, 115 mM of NaCl, 5.4 mM of KCl, 0.8 mM of MgCl2, 1.8 mM of CaCl2 and 13.8 mM of D-glucose) containing 1 μM of Nifedipine was applied to the cells and refluxed by Y-tube method for 2 minutes. Then, a 60 mM potassium chloride-containing stimulating agent was rapidly given. Thereafter, 60 mM potassium chloride-containing stimulating agents which further contained 0.1, 1 or 10 μM of a test compound were rapidly and successively administered by Y-tube method to determine the channel inhibition activity. Finally, 60 mM potassium chloride-containing stimulating agent further containing 1 μM of omega conotoxin (Peptide Kenkyu-sho) was rapidly given by Y-tube method to realize 100% inhibition of the N-type calcium channel.

[4] = 10^−7 M compound, inhibition rate on maximum KCl contraction of rat thoracic aorta

T1 sequence (Q02294 whole entry): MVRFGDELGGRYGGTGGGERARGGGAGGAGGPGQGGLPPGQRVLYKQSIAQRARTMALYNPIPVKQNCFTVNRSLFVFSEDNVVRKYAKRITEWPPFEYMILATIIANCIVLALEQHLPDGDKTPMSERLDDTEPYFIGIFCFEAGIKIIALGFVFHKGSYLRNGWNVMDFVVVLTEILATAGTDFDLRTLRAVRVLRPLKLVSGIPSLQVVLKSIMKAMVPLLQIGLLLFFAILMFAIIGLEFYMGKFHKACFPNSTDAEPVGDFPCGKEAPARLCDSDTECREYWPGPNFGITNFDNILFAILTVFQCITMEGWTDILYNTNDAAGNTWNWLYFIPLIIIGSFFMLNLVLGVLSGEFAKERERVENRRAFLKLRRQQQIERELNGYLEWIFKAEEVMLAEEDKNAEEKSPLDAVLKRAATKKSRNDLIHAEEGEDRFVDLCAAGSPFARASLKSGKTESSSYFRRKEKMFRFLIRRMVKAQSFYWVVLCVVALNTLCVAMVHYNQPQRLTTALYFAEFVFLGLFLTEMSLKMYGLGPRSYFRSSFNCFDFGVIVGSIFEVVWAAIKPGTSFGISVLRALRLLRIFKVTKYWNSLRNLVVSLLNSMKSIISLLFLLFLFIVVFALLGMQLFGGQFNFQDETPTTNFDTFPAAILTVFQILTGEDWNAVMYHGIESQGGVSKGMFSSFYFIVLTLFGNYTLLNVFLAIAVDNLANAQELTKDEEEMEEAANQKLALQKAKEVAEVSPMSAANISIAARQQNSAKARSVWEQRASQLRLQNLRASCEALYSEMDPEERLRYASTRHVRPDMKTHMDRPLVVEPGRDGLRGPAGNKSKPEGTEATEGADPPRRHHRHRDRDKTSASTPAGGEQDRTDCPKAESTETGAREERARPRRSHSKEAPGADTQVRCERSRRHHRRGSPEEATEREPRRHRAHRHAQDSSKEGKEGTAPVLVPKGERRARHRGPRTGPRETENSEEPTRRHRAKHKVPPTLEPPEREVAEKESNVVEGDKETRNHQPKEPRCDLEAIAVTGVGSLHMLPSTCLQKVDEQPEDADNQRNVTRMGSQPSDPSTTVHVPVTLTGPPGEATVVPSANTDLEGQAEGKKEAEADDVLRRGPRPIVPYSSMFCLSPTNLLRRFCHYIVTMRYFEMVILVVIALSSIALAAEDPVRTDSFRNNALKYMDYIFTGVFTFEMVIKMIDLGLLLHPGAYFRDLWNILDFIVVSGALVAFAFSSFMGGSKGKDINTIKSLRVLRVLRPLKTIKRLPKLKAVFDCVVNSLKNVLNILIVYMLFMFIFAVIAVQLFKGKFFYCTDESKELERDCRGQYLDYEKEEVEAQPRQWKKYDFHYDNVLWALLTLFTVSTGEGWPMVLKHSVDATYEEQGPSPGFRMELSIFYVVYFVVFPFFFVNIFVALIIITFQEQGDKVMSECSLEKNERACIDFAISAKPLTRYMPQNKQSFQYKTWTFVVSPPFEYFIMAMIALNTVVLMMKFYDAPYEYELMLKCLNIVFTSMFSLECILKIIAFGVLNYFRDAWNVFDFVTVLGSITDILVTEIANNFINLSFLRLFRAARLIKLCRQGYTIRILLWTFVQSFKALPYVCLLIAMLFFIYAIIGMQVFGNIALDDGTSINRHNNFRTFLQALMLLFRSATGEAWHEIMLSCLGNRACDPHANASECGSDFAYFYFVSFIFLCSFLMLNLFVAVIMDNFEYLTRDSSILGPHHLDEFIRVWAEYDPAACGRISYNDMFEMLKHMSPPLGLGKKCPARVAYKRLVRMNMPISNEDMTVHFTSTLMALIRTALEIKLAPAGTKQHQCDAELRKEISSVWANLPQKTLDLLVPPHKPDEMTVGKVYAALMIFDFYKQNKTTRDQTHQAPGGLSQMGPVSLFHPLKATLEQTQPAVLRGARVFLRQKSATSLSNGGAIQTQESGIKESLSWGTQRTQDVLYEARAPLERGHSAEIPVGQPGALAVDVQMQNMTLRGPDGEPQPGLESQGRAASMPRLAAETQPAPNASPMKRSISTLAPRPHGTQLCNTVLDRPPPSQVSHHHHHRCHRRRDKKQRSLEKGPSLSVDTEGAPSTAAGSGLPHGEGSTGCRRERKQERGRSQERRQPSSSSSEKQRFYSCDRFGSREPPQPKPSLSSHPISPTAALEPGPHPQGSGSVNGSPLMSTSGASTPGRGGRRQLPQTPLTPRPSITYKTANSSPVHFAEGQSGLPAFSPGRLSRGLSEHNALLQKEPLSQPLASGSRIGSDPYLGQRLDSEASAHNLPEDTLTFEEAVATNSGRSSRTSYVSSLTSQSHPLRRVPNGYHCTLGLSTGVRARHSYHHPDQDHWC
T1 sequence (P54290 25-944 partner limits assumed): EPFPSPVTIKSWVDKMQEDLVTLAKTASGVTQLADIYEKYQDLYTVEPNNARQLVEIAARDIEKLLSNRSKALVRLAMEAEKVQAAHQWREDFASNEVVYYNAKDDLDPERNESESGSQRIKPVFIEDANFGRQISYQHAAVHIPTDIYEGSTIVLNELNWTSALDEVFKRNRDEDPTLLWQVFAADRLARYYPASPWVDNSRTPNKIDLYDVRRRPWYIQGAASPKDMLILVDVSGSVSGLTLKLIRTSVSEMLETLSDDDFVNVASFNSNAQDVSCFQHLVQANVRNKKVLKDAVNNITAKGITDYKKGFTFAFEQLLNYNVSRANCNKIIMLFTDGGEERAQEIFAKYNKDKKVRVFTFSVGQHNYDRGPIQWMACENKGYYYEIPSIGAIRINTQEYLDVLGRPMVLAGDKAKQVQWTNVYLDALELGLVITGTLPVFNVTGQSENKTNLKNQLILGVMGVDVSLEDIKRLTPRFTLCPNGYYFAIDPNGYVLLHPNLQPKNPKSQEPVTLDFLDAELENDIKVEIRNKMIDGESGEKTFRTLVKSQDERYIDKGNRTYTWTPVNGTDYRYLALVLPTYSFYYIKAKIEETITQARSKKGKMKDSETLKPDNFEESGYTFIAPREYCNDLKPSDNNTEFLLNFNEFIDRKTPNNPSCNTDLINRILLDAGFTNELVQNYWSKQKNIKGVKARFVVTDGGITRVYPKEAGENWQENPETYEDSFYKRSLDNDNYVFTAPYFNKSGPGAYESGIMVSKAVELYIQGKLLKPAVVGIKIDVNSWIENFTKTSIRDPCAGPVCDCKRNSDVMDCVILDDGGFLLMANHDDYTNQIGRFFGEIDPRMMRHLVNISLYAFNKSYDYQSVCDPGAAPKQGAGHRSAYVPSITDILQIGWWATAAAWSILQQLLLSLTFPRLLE
T1 sequence (P54290 945-1091 partner limits assumed): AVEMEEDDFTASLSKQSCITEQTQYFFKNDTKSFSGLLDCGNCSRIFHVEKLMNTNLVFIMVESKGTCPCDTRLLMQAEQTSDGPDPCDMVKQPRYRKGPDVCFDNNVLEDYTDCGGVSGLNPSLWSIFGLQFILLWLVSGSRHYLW
T1 sequence (P54287 whole entry partner): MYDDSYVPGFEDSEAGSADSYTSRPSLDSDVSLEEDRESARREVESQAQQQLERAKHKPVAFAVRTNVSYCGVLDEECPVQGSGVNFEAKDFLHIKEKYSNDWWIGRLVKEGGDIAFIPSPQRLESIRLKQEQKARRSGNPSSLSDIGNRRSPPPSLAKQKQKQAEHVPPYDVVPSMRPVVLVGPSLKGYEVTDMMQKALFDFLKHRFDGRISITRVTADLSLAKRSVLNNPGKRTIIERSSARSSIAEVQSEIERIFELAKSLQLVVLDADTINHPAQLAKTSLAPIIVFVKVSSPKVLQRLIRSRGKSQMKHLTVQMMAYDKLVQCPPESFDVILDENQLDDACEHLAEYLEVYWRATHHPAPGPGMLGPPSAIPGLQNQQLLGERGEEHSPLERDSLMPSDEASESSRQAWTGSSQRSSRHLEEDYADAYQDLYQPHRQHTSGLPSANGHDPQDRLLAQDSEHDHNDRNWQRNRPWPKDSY

Row | inhibition at 0.1 µM [1] [%] | inhibition at 0.1 µM [2, 4] [%] | IC50 [2] [nM] | IC50 [3] [nM] | N-type inhibition 0.1 uM (%) [1] [%] | L-type inhibition 10^−7 M (%) [2, 4] [%] | N-type inhibition pIC50 [3] | Compound
1 | 35 | 19 | > 1000 | 5010 | – | – | – | CC1=C(C(=O)O)C(c2cccc(Cl)c2)C(C(=O)NCC=Cc2ccccc2)=C(C)N1 (stereo not shown) [Example 1, 4-(3-chlorophenyl)-2,6-dimethyl-5-(3-phenyl-2-propene-1-ylcarbamoyl)-1,4-dihydropyridine-3-carboxylic acid]
2 | 16 | -7 | 914 | 1580 | – | – | – | CC1=C(C(=O)O)C(c2cccc([N+](=O)[O-])c2)C(C(=O)NC/C=C/c2ccccc2)=C(C)N1 (stereo not shown) [Example 4, 2,6-dimethyl-4-(3-nitrophenyl)-5-(3-phenyl-2-propene-1-ylcarbamoyl)-1,4-dihydropyridine-3-carboxylc acid]
3 | – | – | – | 2510 | – | – | – | CC1=C(C(=O)O)C(c2cccc(C#N)c2)C(C(=O)NCC=Cc2ccccc2)=C(C)N1 (stereo not shown) [Example 10, 4-(3-cyanophenyl)-2,6-dimethyl-5-(3-phenyl-2-propene-1-ylcarbamoyl)-1,4-dihydropyridine-3-carboxylic acid]
4 | 16 | -6 | > 1000 | 1580 | – | – | – | CC1=C(C(=O)O)C(c2ccc([N+](=O)[O-])cc2)C(C(=O)NCC=Cc2ccccc2)=C(C)N1 (stereo not shown) [Example 17, 2,6-dimethyl-4-(4-nitrophenyl)-5-[(3-phenyl-2-propene-1-yl)carbamoyl]-1,4-dihydropyridine-3-carboxylic acid]
5 | – | – | – | 794 | – | – | – | CC1=C(C(=O)O)C(c2cccc(Cl)c2)C(C(=O)NCC(=O)Nc2ccccc2)=C(C)N1 (stereo not shown) [Example 21, 4-(3-chlorophenyl)-2,6-dimethyl-5-(phenylcarbamoylmethylcarbamoyl)-1,4-dihydropyridine-3-carboxylic acid]
6 | – | – | – | 631 | – | – | – | CC1=C(C(=O)O)C(c2cccc(Cl)c2)C(C(=O)NCCC(c2ccccc2)c2ccccc2)=C(C)N1 (stereo not shown) [Example 34, 4-(3-chlorophenyl)-2,6-dimethyl-5-(3,3-diphenylpropylcarbamoyl)-1,4-dihydropyridine-3-carboxylic acid]
7 | – | – | 220 | – | 24 | 21 | 5.9 | (3-phenyl-2-propene-1-yl) 4-(3-chlorophenyl)-5-cyano-2,6-dimethyl-1,4-dihydropyridine-3-carboxylate [Example 12]
